The record followed here is publication PMC11173382, “In Vitro Investigations into the Potential Drug Interactions of Pseudoginsenoside DQ Mediated by Cytochrome P450 and Human Drug Transporters” (Molecules, 2024).

For one test, the target named is T1, CYP2C9 (Homo sapiens, UniProt P11712).
T1 construct: tissue Corning 452117; host or cells: human liver microsomes
The test is described as follows: CYP450 inhibition assay in human liver microsomes, CYP2C9. Conditions: HLM 0.1 mg/mL; probe diclofenac 10 µM; 10 min. In kind it is in vitro ADME. As for the experimental part: (§1) To evaluate the reliability and reproducibility of the CYP450 inhibition assay, we measured the inhibitory effects of selected positive control inhibitors of each CYP450 enzyme in human liver microsomes (HLM, Table 1, Figure 2). The potency of inhibition was estimated by observing the alteration in concentration of metabolites of CYP450 substrates (Table 1).
(§2) Reagents preparation. […] The stock solution of PDQ (10 mM) was prepared with methanol and further diluted to the range of 3 µM to 3 mM with methanol to ensure that the solvent of different PDQ samples contained the same amount (1%) of methanol.
(§3) The stock solutions of the positive control inhibitors and the probe substrates of CYP450 enzymes were prepared in methanol.
(§4) CYP450 inhibition assay. […] The assay was conducted in polypropylene 96-well plates (2.2 mL/well, Apricot Designs Inc., Covina, CA, USA).
(§5) The total volume of the reaction is 200 μL. […] The substrates and analytes were analyzed by LC-MS/MS (API4000, Applied Biosystems, Singapore; HPLC, Shimadzu, Japan). […]
(§6) Data analysis. […] The IC50 was determined by fitting the dependence of the relative remaining activity (y = Vi/V0) to the following three-parameter equation (Equation (1)). […]

The next test concerns the target T2, CYP2B6 (Homo sapiens, UniProt P20813).
T2 construct: tissue Corning 452117; host or cells: human liver microsomes
T2 sequence (P20813 1-491): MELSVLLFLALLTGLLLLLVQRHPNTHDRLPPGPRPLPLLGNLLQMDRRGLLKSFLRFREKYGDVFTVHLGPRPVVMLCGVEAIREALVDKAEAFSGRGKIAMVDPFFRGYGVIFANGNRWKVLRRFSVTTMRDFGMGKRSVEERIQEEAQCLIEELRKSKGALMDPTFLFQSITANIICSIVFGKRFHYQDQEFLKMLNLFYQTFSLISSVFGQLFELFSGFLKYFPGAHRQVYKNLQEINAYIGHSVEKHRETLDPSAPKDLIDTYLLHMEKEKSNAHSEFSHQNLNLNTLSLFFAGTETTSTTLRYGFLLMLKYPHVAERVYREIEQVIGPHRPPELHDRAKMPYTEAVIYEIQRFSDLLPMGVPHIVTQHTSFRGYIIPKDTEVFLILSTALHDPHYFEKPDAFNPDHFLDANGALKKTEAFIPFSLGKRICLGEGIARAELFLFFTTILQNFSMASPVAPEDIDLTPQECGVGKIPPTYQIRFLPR
Description: CYP450 inhibition assay in human liver microsomes, CYP2B6. Type of test: in vitro ADME. Conditions: HLM 0.1 mg/mL; probe bupropion 80 µM; 10 min. As for the experimental part:
as §1, §2, §3, §4, §5, §6

T1 sequence (P11712 whole entry): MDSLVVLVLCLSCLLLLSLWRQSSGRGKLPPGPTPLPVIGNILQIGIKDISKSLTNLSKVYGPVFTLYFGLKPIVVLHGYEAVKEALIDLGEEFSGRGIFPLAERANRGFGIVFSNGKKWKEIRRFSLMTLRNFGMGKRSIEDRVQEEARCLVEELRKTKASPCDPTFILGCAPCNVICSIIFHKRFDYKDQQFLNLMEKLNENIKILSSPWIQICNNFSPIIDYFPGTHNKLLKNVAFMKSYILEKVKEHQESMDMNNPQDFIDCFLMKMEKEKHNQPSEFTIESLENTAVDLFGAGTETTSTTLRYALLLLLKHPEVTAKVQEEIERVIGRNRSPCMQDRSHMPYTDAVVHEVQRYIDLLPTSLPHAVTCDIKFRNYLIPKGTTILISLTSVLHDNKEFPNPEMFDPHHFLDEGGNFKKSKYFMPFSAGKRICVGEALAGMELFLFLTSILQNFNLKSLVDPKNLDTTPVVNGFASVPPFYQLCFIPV

For the compound `CC(C)(O)[C@@H]1CC[C@@](C)([C@H]2CC[C@]3(C)[C@@H]2[C@H](O)C[C@@H]2[C@@]4(C)CC[C@H](O)C(C)(C)[C@@H]4CC[C@]23C)O1` [PDQ, (20S,24S)-dammar-20,24-epoxy-3β, 12β, 25-triol], the IC50 came to 11.7 µM against CYP2C9 and 45.3 µM against CYP2B6.

Broadly, the IC50 is the concentration that gives 50% inhibition. Low values mean greater potency, high ones weaker potency.
